From patent US20260256934A1, “ANTIBODY-DRUG CONJUGATE INCLUDING MUTANT Fc REGION” (DAIICHI SANKYO COMPANY, LIMITED, priority 2022, published 2026)

Experiments:
[1] = target: T1, human AQ mutant (Hu-AQ) STING C-terminal binding domain protein (Homo sapiens, UniProt Q86WV6, G230A/H232R/R293Q); assay: Thermal shift assay with recombinant STING C-terminal binding domain protein (Hu-AQ); conditions: test compound 0.5 mM; Tm minus Tm of well without compound
T1 construct: made in house; host or cells: E. coli Rosetta 2 (DE3), co-expressed with BirA
T1 sequence (Q86WV6 with tags, fused parts or gaps G230A/H232R/R293Q): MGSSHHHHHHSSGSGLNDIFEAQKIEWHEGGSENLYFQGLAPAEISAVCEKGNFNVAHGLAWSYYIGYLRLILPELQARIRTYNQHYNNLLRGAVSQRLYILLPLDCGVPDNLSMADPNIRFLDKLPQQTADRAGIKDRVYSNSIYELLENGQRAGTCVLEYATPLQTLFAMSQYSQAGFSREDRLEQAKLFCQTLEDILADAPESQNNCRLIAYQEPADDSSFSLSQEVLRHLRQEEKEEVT
Experimental: (§1) Each expression strain was added to TB broth containing 100 μg/mL ampicillin, 50 μg/mL streptomycin, and 30 μg/mL kanamycin, and cultured at 37° C. Expression was then induced with 100 µM IPTG, and the cells were further cultured at 16° C.
(§2) The culture broth was centrifuged, and the obtained bacteria were frozen and thawed. The proteins were extracted by sonication, and the supernatant was collected by centrifugation. The resulting supernatant was purified through a HisTrap FF column (GE Healthcare) using an AKTAexpress chromatography system (GE Healthcare, IL, US), made to pass through a Superdex200 16/60 column (GE Healthcare), and eluted.
(§3) The binding of a compound to each STING C-terminal binding domain protein was determined by a thermal shift assay, which uses the increase in the thermal denaturation temperature of the protein as an indicator.
(§4) Specifically, each test compound (final concentration 0.5 mM), SYPRO Orange (final concentration: 20×concentration), and the STING protein were mixed in a 384-well real-time PCR plate using a plate shaker. […] Tm (the midpoint of the unfolding transition) (° C.) was determined as the temperature at which the rate of increase in fluorescence intensity reached its maximum value. The shift of Tm by the test compound was calculated as ΔTm (° C.) by subtracting, from the Tm value of each compound, the Tm value of the well without the compound.

[2] = target: T2, mouse wild type (Ms-WT) STING C-terminal binding domain protein (Mus musculus, UniProt Q3TBT3); assay: Thermal shift assay with recombinant STING C-terminal binding domain protein (Ms-WT); conditions: test compound 0.5 mM; Tm minus Tm of well without compound
T2 construct: made in house; host or cells: E. coli Rosetta 2 (DE3), co-expressed with BirA
T2 sequence (Q3TBT3 with tags, fused parts or gaps): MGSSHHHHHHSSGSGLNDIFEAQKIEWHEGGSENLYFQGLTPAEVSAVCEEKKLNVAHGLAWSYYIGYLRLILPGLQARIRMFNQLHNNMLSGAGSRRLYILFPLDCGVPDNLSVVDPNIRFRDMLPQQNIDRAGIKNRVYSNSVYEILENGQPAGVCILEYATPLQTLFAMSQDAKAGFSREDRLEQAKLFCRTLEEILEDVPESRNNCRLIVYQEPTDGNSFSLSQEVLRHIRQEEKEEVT
Experimental: as §1, §2, §3
Specifically, each test compound (final concentration 0.5 mM), SYPRO Orange (final concentration: 20×concentration), and the STING protein were mixed in a 384-well real-time PCR plate using a plate shaker. A real-time PCR system was used to increase the temperature from 25° C. to 95° C. at a rate of 0.03° C. per second, and the thermal denaturation temperature of the protein was measured using the fluorescence emitted by SYPRO Orange as an indicator. Tm (the midpoint of the unfolding transition) (° C.) was determined as the temperature at which the rate of increase in fluorescence intensity reached its maximum value. The shift of Tm by the test compound was calculated as ΔTm (° C.) by subtracting, from the Tm value of each compound, the Tm value of the well without the compound.

[3] = target: T3, human wild-type (Hu-WT) STING C-terminal binding domain protein (Homo sapiens, UniProt Q86WV6, H232R); assay: Thermal shift assay with recombinant STING C-terminal binding domain protein (Hu-WT); conditions: test compound 0.5 mM; Tm minus Tm of well without compound
T3 construct: made in house; host or cells: E. coli Rosetta 2 (DE3), co-expressed with BirA
T3 sequence (Q86WV6 with tags, fused parts or gaps H232R): as the sequence (Q86WV6 with tags, fused parts or gaps G230A/H232R/R293Q) above, with A131G, Q194R counted along it
Experimental: as §1, §2, §3, §4

[4] = target: T4, human REF mutant (Hu-REF) STING C-terminal binding domain protein (Homo sapiens, UniProt Q86WV6); assay: Thermal shift assay with recombinant STING C-terminal binding domain protein (Hu-REF); conditions: test compound 0.5 mM; Tm minus Tm of well without compound
T4 construct: made in house; host or cells: E. coli Rosetta 2 (DE3), co-expressed with BirA
T4 sequence (Q86WV6 with tags, fused parts or gaps, change not shown): as the sequence (Q86WV6 with tags, fused parts or gaps G230A/H232R/R293Q) above, with A131G, R133H, Q194R counted along it
Experimental: as §1, §2, §3, §4

[5] = target: T5, human FcγRI (Homo sapiens, UniProt P12314); assay: Human FcγRI binding activity by SPR (Biacore T200); conditions: anti-EGFR antibodies as analyte, 0.3-4.7 μM; His-tagged FcγRI captured
T5 construct: purchased R&D systems
T5 sequence (P12314 16-374): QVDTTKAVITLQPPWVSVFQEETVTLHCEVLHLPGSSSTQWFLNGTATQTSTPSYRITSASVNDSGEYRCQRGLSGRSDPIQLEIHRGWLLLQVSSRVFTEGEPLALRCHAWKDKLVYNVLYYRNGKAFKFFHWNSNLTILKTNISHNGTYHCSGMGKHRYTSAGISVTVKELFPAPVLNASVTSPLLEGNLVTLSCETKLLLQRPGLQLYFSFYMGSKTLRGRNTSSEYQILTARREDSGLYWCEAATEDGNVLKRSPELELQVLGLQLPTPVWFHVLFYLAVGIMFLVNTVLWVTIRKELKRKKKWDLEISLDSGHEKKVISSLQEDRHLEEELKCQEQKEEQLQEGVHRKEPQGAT
Experimental: Anti-EGFR antibodies with various introduced effector-less mutations were evaluated for their binding activity against human FcγRI using Biacore T200 (Cytiva). […] The anti-EGFR antibody B used in the Test Example was obtained as HBS-EP+ solution by subjecting commercially available Vectibix Intravenous Infusion (Takeda Pharmaceuticals) (100 mg/5 mL) to buffer exchange using Amicon Ultra-15 Centrifugal Filter Unit (50K, produced by Merck). The binding activity was determined by allowing His-tagged human FcγRI to be captured as a ligand onto an anti-His antibody-immobilized sensor chip, then adding each anti-EGFR antibody as an analyte to the sensor chip, and measuring the interaction between the ligand and the analyte by Surface Plasmon Resonance (SPR). Anti-6× His tag antibody [AD1.1.10] (abcam) was immobilized onto Sensor Chip CM5 (Cytiva) according to the instructions of the kit. Recombinant Human Fc gamma RI/CD64 Protein (R&D systems) prepared at 10 μg/mL with HBS-EP+(GE Healthcare) was contacted with the sensor chip for 60 sec at 10 μL/min and thereby captured. Then, the anti-EGFR antibody prepared at each concentration with HBS-EP+ was added to the sensor chip for 120 sec at a flow rate of 30 μL/min.

[6] = target: T6, human FcγRIIb/c (Homo sapiens, UniProt P31994); assay: Human FcγRIIb/c binding activity by SPR; conditions: anti-EGFR antibodies as analyte, 0.9-4.7 μM
T6 construct: purchased R&D systems
T6 sequence (P31994 43-310): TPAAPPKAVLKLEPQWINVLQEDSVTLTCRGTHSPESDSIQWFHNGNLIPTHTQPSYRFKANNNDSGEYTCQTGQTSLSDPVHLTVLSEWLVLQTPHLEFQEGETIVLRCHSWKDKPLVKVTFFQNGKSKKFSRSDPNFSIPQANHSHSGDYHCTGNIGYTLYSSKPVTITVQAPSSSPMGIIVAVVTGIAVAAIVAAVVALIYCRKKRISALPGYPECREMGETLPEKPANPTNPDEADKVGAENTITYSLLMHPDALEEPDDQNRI
Experimental: (§5) The binding activity was determined by directly immobilizing human FcγR as a ligand onto a sensor chip, then adding each anti-EGFR antibody as an analyte to the sensor chip, and measuring the interaction between the ligand and the analyte by SPR. Recombinant Human Fc gammaRIIA/CD32a (R167) Protein (R&D systems) was immobilized as human FcγRIIa onto Sensor Chip CM5 according to the instructions of the kit. Then, the anti-EGFR antibody prepared at each concentration with HBS-EP+ was added to the sensor chip for 120 sec at a flow rate of 30 μL/min.
Recombinant Human Fc gamma RIIB/C (CD32b/c) Protein (R&D systems) was used as human FcγRIIb/c.

[7] = target: T7, human FcγRIIIa (Homo sapiens, UniProt P08637); assay: Human FcγRIIIa binding activity by SPR; conditions: anti-EGFR antibodies as analyte, 0.9-4.7 μM
T7 construct: purchased R&D systems
T7 sequence (P08637 17-254): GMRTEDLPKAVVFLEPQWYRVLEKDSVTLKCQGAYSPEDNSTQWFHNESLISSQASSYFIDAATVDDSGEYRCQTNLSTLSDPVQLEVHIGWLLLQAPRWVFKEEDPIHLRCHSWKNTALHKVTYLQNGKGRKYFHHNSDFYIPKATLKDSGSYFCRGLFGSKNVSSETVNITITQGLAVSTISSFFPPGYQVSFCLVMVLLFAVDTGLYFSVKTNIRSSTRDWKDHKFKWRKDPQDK
Experimental: as §5
Recombinant Human Fc gamma RIIIA/CD16a protein (R&D systems) was used as human FcγRIIIa.

[8] = target: T8, human FcγRIIIb (Homo sapiens, UniProt O75015); assay: Human FcγRIIIb binding activity by SPR; conditions: anti-EGFR antibodies as analyte, 0.9-4.7 μM
T8 construct: purchased R&D systems
T8 sequence (O75015 17-200): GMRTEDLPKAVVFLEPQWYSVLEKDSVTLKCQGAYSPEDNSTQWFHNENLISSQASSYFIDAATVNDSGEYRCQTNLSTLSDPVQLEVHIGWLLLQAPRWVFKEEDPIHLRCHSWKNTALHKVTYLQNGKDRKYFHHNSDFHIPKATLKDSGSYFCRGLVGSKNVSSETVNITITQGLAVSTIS
Experimental: as §5
Recombinant Human Fc gamma RIIIB/CD16b Protein (R&D systems) was used as human FcγRIIIb.

Compound	ΔTm (° C.) Hu-AQ [1] [°C]	ΔTm (° C.) Ms-WT [2] [°C]	ΔTm (° C.) Hu-WT [3] [°C]	ΔTm (° C.) Hu-REF [4] [°C]	also measured
O=c1c2ncn([C@@H]3O[C@@H]4COP(=O)(S)O[C@H]5[C@@H](O)[C@H](n6cc7c8c(ncnc86)NCCC7)O[C@@H]5COP(=O)(S)O[C@@H]3[C@@H]4O)c2ncn1CCO (single isomer, unassigned) [Compound 6b]	11.3	12.9	8.4	3.4	–
O=c1c2ncn([C@@H]3O[C@@H]4COP(=O)(S)O[C@H]5[C@@H](F)[C@H](n6cc7c8c(ncnc86)NCCC7)O[C@@H]5COP(=O)(S)O[C@@H]3[C@@H]4O)c2ncn1CCO (single isomer, unassigned) [Compound 34b]	14.0	16.7	12.0	6.5	–
O=c1c2ncn([C@@H]3O[C@@H]4COP(=O)(S)O[C@H]5[C@@H](O)[C@H](n6cc7c8c(ncnc86)NCCC7)O[C@@H]5COP(=O)(S)O[C@@H]3[C@@H]4F)c2ncn1CCO (single isomer, unassigned) [Compound 39b]	–	–	–	–	ΔTm at 500 µM [1]: 10.5 °C; ΔTm at 500 µM [2]: 13.1 °C; ΔTm at 500 µM [3]: 8.9 °C; ΔTm at 500 µM [4]: 3.7 °C
O=c1c2ncn([C@@H]3O[C@@H]4COP(=O)(S)O[C@H]5[C@@H](F)[C@H](n6cc7c8c(ncnc86)NCCC7)O[C@@H]5COP(=O)(S)O[C@@H]3[C@@H]4F)c2ncn1CCO (single isomer, unassigned) [Compound 44b]	14.3	17.0	11.4	6.2	–
O=c1c2ncn([C@@H]3O[C@@H]4COP(=O)(S)O[C@H]5[C@@H](F)[C@H](n6cc7c8c(ncnc86)SCCC7)O[C@@H]5COP(=O)(S)O[C@@H]3[C@@H]4O)c2ncn1CCO (single isomer, unassigned) [Compound 48b]	17.8	15.8	14.0	7.3	–
O=c1c2ncn([C@@H]3O[C@@H]4COP(=O)(O)O[C@H]5[C@@H](F)[C@H](n6cc7c8c(ncnc86)NCCC7)O[C@@H]5COP(=O)(S)O[C@@H]3[C@@H]4O)c2ncn1CCO (single isomer, unassigned) [Compound 52b]	10.8	12.3	9.2	4.4	–
IgG2: IgG2-type anti-EGFR antibody, commercially available Vectibix Intravenous Infusion; heavy chain SEQ ID NO: 35	–	–	–	–	RU value indicating binding to human FcγRI (rank order) [5]: IgG1 WT>>LALA>>IgG2>LALA-DG; RU value indicating binding to human FcγRIIb/c (rank order) [6]: IgG1 WT>IgG2>LALA>LALA-DG; RU value indicating binding to human FcγRIIIa (rank order) [7]: IgG1 WT>LALA>IgG2>LALA-DG; RU value indicating binding to human FcγRIIIb (rank order) [8]: IgG1 WT>LALA≈IgG2≈LALA-DG
